This note sets out measurements from ChEMBL document CHEMBL3132769, “Fragment growing to retain or alter the selectivity of anchored kinase hinge-binding fragments” (Medchemcomm, 2014).

Usually inhibition stands for the percentage by which the read-out fell short of the control.

Test [1] deals with MAP kinase p38 (Homo sapiens) (UniProt O15264+Q15759+Q16539+P53778). Briefly: Inhibition of human full length p38 beta2 expressed in Escherichia coli cell assessed as substrate phosphorylation using fluorescence-labelled peptides as substrate at 0.2 uM after 90 mins by microfluidic peptide phosphorylation assay.
Test [2] deals with Protein kinase C beta type (Homo sapiens) (UniProt P05771). The test is described as follows: Inhibition of human truncated PKC beta1 expressed in baculovirus assessed as substrate phosphorylation using fluorescence-labelled peptides as substrate at 0.1 uM after 90 mins by microfluidic peptide phosphorylation assay.
Chain of Protein kinase C beta type (Homo sapiens) (P05771 2-671 limits assumed): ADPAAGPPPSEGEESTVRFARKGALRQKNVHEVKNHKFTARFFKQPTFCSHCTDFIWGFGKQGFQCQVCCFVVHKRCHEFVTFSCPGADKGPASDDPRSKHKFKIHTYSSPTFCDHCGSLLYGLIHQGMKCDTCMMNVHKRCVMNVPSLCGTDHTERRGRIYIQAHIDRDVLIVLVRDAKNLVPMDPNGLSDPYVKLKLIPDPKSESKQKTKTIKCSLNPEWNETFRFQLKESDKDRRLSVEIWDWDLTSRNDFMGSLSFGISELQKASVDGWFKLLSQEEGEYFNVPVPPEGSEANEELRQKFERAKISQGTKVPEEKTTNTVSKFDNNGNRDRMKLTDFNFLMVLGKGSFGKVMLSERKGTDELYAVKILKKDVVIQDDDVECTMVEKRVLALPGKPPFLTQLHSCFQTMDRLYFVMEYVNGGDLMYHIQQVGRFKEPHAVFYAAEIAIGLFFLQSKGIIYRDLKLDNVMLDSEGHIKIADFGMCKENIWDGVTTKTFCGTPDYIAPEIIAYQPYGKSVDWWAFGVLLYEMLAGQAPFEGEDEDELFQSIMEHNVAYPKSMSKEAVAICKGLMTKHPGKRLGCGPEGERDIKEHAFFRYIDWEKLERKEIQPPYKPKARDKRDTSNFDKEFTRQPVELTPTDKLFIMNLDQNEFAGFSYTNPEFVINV
Test [3] addresses Serine/threonine-protein kinase MARK1 (Homo sapiens) (UniProt Q9P0L2). The test is described as follows: Inhibition of human full length MARK1 expressed in baculovirus assessed as substrate phosphorylation using fluorescence-labelled peptides as substrate at 95 uM after 90 mins by microfluidic peptide phosphorylation assay.
Test [4] deals with Hepatocyte growth factor receptor (Homo sapiens) (UniProt P08581). The test is described as follows: Inhibition of human MET cytoplasmic domain expressed in baculovirus assessed as substrate phosphorylation using fluorescence-labelled peptides as substrate at 8 uM after 90 mins by microfluidic peptide phosphorylation assay.
Chain of Hepatocyte growth factor receptor (Homo sapiens) (P08581 whole entry, the tested form may be a part): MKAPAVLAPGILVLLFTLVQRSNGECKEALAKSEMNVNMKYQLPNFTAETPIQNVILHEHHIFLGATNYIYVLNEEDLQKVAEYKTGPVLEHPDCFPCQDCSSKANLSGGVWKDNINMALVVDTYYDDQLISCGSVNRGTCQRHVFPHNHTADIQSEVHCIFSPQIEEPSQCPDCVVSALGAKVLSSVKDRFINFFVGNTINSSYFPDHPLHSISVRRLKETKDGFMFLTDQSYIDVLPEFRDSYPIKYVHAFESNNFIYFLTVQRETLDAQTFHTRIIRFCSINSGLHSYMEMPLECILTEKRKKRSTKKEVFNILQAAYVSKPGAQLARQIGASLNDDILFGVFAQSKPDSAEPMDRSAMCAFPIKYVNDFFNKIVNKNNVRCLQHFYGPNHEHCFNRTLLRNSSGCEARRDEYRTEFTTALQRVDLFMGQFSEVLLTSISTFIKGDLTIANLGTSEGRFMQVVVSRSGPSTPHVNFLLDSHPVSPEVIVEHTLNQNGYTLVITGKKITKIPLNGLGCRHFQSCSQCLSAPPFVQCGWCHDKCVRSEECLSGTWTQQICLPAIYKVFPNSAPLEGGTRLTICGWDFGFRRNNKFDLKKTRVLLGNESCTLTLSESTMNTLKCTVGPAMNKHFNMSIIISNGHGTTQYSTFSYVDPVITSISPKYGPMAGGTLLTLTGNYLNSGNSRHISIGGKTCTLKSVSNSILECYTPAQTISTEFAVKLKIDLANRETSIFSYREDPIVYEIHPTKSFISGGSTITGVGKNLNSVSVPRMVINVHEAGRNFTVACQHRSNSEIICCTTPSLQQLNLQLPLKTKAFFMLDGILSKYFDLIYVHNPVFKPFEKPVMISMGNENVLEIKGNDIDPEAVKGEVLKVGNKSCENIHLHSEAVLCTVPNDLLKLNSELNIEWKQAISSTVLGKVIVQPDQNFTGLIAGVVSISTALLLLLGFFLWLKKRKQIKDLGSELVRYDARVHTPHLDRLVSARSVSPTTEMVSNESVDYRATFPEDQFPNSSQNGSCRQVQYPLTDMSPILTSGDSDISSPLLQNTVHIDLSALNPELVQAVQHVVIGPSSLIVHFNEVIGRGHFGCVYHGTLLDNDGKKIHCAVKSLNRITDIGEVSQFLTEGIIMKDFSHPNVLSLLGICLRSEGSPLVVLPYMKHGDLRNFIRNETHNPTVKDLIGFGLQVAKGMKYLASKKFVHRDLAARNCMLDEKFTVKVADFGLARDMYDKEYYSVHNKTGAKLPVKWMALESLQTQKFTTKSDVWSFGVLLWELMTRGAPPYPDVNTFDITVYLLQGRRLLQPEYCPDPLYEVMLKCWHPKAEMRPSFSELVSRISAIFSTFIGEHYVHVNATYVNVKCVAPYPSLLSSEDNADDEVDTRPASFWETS
For a further test, the species on record is Homo sapiens. Briefly: Inhibition of human full length PKA expressed in baculovirus assessed as substrate phosphorylation using fluorescence-labelled peptides as substrate at 8 uM after 90 mins by microfluidic peptide phosphorylation assay.
Test [5] concerns the target Dual specificity tyrosine-phosphorylation-regulated kinase 1A (Rattus norvegicus) (UniProt Q63470). The test is described as follows: Inhibition of rat full length DYRK1a expressed in Escherichia coli cell assessed as substrate phosphorylation using fluorescence-labelled peptides as substrate at 1000 uM after 90 mins by microfluidic peptide phosphorylation assay.
The target in test [6] is Rho-associated protein kinase 2 (Homo sapiens) (UniProt O75116). Briefly: Inhibition of human ROCK2 catalytic domain expressed in baculovirus assessed as substrate phosphorylation using fluorescence-labelled peptides as substrate at 0.06 uM after 90 mins by microfluidic peptide phosphorylation assay.
Chain of Rho-associated protein kinase 2 (Homo sapiens) (O75116 whole entry, looked up, the tested form may be a part): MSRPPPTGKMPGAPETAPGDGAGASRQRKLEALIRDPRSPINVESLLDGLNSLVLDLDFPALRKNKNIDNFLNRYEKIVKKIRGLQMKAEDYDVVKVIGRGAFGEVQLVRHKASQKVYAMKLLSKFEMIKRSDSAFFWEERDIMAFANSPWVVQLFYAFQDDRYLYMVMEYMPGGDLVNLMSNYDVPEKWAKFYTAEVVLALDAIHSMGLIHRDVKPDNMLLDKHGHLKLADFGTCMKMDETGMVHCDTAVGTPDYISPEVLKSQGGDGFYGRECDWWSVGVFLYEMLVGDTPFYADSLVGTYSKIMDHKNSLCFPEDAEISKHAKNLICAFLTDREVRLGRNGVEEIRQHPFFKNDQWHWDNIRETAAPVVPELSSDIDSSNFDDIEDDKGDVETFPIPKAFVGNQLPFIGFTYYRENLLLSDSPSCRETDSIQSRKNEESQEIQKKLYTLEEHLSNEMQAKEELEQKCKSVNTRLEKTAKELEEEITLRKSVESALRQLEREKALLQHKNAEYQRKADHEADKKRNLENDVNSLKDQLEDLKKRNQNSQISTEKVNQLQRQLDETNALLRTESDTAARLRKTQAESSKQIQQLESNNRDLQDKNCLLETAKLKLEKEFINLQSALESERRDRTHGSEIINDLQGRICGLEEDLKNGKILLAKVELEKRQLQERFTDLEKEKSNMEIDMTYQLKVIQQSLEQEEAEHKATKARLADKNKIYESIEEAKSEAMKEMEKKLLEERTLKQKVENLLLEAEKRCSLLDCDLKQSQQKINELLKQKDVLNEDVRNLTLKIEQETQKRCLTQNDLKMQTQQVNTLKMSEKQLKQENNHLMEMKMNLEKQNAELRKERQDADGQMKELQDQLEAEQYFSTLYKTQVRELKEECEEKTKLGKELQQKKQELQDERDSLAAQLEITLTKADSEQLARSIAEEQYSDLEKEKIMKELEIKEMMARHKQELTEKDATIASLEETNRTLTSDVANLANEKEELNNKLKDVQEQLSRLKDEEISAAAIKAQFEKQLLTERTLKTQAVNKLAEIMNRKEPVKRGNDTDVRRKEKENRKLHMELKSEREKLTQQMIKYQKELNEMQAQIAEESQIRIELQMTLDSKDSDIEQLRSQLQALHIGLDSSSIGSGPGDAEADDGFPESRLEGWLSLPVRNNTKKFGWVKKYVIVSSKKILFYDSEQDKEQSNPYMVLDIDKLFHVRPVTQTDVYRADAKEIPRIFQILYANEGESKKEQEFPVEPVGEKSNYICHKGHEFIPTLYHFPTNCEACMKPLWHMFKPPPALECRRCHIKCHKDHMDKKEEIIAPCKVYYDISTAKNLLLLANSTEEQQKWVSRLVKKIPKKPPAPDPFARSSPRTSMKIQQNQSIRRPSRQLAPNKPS
The target of test [7] is Protein kinase C eta type (Homo sapiens) (UniProt P24723). The test is described as follows: Inhibition of human truncated PKC eta expressed in baculovirus assessed as substrate phosphorylation using fluorescence-labelled peptides as substrate at 0.06 uM after 90 mins by microfluidic peptide phosphorylation assay.
Chain of Protein kinase C eta type (Homo sapiens) (P24723 whole entry, the tested form may be a part): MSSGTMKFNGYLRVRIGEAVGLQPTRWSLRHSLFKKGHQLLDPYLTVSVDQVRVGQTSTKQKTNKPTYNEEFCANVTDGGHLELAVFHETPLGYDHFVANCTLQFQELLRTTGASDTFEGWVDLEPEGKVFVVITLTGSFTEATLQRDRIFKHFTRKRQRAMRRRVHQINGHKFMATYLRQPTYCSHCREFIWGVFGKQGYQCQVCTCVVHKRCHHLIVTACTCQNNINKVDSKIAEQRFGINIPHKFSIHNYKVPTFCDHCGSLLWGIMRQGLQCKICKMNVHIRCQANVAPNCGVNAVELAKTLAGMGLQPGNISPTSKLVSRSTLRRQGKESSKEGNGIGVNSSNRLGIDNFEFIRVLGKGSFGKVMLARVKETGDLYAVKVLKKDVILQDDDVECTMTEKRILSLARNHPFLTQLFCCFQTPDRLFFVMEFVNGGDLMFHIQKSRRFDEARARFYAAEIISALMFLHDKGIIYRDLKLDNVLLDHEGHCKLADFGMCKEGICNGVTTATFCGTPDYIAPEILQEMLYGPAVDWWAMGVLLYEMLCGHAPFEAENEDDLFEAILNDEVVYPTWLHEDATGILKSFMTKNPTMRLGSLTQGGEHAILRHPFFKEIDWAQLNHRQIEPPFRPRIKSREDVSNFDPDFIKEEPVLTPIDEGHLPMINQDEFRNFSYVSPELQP
Test [8] addresses T1, Serine/threonine-protein kinase D1 (Homo sapiens) (UniProt Q15139).
T1 sequence (whole entry): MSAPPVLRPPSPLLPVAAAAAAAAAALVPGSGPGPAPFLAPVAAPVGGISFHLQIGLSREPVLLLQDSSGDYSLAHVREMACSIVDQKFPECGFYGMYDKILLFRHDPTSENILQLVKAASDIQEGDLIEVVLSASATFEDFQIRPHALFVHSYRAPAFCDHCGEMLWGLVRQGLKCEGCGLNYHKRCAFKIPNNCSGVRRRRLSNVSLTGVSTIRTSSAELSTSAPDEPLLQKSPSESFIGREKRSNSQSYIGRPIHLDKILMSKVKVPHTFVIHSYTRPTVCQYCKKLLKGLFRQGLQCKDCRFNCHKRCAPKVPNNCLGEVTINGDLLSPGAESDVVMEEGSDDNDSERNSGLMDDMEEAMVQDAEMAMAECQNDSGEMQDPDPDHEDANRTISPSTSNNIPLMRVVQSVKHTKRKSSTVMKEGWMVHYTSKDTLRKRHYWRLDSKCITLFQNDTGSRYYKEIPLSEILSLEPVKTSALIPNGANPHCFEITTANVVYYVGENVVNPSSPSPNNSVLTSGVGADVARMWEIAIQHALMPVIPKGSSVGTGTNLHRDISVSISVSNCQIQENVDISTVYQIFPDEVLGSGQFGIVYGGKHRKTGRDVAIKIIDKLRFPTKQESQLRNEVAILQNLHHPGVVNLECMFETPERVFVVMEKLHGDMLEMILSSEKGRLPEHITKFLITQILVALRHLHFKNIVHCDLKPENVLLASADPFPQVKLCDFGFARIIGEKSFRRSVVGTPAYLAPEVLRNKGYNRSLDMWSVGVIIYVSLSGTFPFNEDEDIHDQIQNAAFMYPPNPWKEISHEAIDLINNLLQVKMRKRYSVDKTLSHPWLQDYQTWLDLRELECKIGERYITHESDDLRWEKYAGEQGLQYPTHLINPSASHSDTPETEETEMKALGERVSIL
Briefly: Inhibition of human full length PKD1 expressed in baculovirus assessed as substrate phosphorylation using fluorescence-labelled peptides as substrate at 2 uM after 90 mins by microfluidic peptide phosphorylation assay.

Test [9] addresses Ribosomal protein S6 kinase alpha-5 (Homo sapiens) (UniProt O75582). Briefly: Inhibition of human full length MSK1 expressed in baculovirus assessed as substrate phosphorylation using fluorescence-labelled peptides as substrate at 70 uM after 90 mins by microfluidic peptide phosphorylation assay.
The target in test [10] is T2, Mitogen-activated protein kinase 12 (Homo sapiens) (UniProt P53778).
T2 sequence (whole entry): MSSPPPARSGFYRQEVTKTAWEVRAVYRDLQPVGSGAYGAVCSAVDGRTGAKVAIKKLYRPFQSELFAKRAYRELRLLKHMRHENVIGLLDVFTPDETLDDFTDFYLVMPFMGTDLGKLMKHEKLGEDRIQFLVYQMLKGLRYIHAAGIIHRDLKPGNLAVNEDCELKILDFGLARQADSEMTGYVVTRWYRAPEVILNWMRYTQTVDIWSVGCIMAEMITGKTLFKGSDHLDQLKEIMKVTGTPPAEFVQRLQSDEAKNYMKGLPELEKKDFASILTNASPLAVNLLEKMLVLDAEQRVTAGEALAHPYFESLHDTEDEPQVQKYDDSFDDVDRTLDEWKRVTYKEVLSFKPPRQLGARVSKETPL
The test is described as follows: Inhibition of human full length p38 gamma expressed in Escherichia coli cell assessed as substrate phosphorylation using fluorescence-labelled peptides as substrate at 70 uM after 90 mins by microfluidic peptide phosphorylation assay.

The target in test [11] is T1, Serine/threonine-protein kinase D1 (Homo sapiens). The test is described as follows: Inhibition of human full length PKD1 expressed in baculovirus assessed as substrate phosphorylation using fluorescence-labelled peptides as substrate at 70 uM after 90 mins by microfluidic peptide phosphorylation assay.

Chain of Serine/threonine-protein kinase MARK1 (Homo sapiens) (Q9P0L2 whole entry, looked up, the tested form may be a part): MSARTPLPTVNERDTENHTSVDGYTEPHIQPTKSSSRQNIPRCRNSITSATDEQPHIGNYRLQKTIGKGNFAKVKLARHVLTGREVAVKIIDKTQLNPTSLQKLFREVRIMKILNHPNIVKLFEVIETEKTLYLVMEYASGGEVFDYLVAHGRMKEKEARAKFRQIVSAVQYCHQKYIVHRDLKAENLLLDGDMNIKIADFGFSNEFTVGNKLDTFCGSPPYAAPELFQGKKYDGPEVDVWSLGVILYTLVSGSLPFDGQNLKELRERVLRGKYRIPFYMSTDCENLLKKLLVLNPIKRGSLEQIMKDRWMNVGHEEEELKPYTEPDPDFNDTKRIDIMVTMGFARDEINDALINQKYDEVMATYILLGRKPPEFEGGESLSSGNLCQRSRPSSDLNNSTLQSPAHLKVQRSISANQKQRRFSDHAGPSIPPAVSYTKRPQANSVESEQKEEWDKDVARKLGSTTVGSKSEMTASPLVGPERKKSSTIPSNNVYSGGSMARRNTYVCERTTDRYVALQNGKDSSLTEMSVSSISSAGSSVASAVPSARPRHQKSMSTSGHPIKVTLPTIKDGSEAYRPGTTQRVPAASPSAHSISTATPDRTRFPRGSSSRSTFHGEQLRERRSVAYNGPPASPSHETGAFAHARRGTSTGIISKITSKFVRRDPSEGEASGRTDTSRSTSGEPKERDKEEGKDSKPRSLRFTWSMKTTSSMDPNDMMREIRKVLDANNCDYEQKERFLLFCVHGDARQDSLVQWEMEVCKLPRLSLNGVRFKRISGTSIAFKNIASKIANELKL

`Clc1ccc(C2(c3ccc(-c4ncnc5[nH]cnc45)cc3)CCNCC2)cc1`: the inhibition in test [1] came to 2.5%.
As to `C[C@H](CN(C)C)Oc1nc(Nc2cc3cccc(Cl)c3cn2)cnc1C#N`, in [2], the inhibition amounted to 3%.
For the compound `NCCc1ccc(-c2ncnc3[nH]cnc23)cc1`, the inhibition in test [3] was 97%.
For `NCC1CCN(c2ncnc3[nH]ccc23)CC1`, the inhibition in test [4] turned out to be 9%; in the test listed under Homo sapiens it was 29.5%.
Regarding `c1cnc2[nH]ccc2c1`, the inhibition in test [5] was 64.5%.
For the compound `NC1(Cc2ccc(Cl)cc2)CCN(c2ncnc3[nH]ccc23)CC1`, the inhibition in test [6] amounted to 0%; in test [7] it was 51%.
On to `NC1CCN(c2ncnc3[nH]ccc23)CC1`, for which, in test [8], the inhibition was 26%.
For the compound `CNCc1ccc(-c2ncnc3[nH]cnc23)cc1`, the values for the inhibition in test [9], in test [10] and in test [11] were 72.5%, 15% and 54.5%, respectively.
